Assay results taken from patent US9249104B2, “Pyrazole indanyl carboxamides” (BAYER CROPSCIENCE AG, priority 2012, dated 2016).

Legend:
[1] = logP by HPLC on reversed phase columns (EEC directive 79/831 Annex V.A8); format: physicochemical; conditions: method [a]: LC-MS at pH 2.7, 0.1% formic acid in water / acetonitrile; compounds of formula (I), Table 1
Puccinia recondita = experiment: In vivo preventive test on Puccinia recondita (brown rust on wheat); conditions: 500 ppm, wheat plants sprayed 24 h before contamination, graded 12 days after contamination
Description: Wheat plants (“Scipion” variety), sown in starter cups on a 50/50 peat soil-pozzolana substrate and grown at 22° C., are treated at the 1-leaf stage (10 cm height) by spraying with the active ingredient prepared as described above. Plants, used as controls, are treated with the mixture of acetone/tween/DMSO/water not containing the active material. After 24 hours, the plants are contaminated by spraying the leaves with an aqueous suspension of Puccinia recondita spores (100 000 spores per ml). The spores are collected from an infected plant and are suspended in water to containing 2.5 ml/l of Tween 80 at 10%. […] Grading (% of efficacy) is carried out 12 days after the contamination, in comparison with the control plants.

Uromyces appendiculatus = experiment: In vivo preventive test on Uromyces appendiculatus (bean rust); conditions: preventive, bean plants, dose of 500 ppm, grading 11 days after contamination
Description: Bean plants (“Saxa” variety), sown in starter cups on a 50/50 peat soil-pozzolana substrate and grown at 24° C., are treated at the 2-leaf stage (9 cm height) by spraying with the active ingredient prepared as described above. Plants, used as controls, are treated with the mixture of acetone/tween/DMSO/water not containing the active material. After 24 hours, the plants are contaminated by spraying the leaves with an aqueous suspension of Uromyces appendiculatus spores (150 000 spores per ml). The spores are collected from infected plants and are suspended in water containing 2.5 ml/1 of Tween 80 at 10%. […] Grading (% of efficacy) is carried out 11 days after the contamination, in comparison with the control plants.

Alternaria brassicae = experiment: In vivo preventive test on Alternaria brassicae (leaf spot on radish); conditions: 500 ppm, radish plants sprayed 24 h before contamination, graded 6 days after contamination
Description: Radish plants (“Pernod Clair” variety), sown in starter cups on a 50/50 peat soil-pozzolana substrate and grown at 17° C., are treated at the cotyledon stage by spraying with the active ingredient prepared as described above. Plants, used as controls, are treated with the mixture of acetone/tween/DMSO/water not containing the active material. After 24 hours, the plants are contaminated by spraying the cotyledons with an aqueous suspension of Alternaria brassicae spores (50 000 spores per ml). The spores are collected from a 15-day-old culture. The contaminated radish plants are incubated at 20° C. and at 100% relative humidity. Grading (% of efficacy) is carried out 6 days after the contamination, in comparison with the control plants.

Septoria tritici = experiment: In vivo preventive test on Septoria tritici (leaf spot on wheat); conditions: 500 ppm, wheat plants sprayed 24 h before contamination, graded 24 days after contamination
Description: Wheat plants (“Scipion” variety), sown in starter cups on a 50/50 peat soil-pozzolana substrate and grown at 22° C., are treated at the 1-leaf stage (10 cm height) by spraying with the active ingredient prepared as described above. Plants, used as controls, are treated with the mixture of acetone/tween/DMSO/water not containing the active material. After 24 hours, the plants are contaminated by spraying the leaves with an aqueous suspension of cryopreserved Septoria tritici spores (500 000 spores per ml). The contaminated wheat plants are incubated for 72 hours at 18° C. and at 100% relative humidity, and then for 21 days at 90% relative humidity. Grading (% of efficacy) is carried out 24 days after the contamination, in comparison with the control plants.

Sphaerotheca fuliginea = experiment: In vivo preventive test on Sphaerotheca fuliginea (powdery mildew on cucurbits); conditions: 500 ppm, gherkin plants sprayed 24 h before contamination, graded 12 days after contamination
Description: Gherkin plants (“Vert petit de Paris” variety), sown in starter cups on a 50/50 peat soil-pozzolana substrate and grown at 24° C., are treated at the Z11 cotyledon stage by spraying with the active ingredient prepared as described above. Plants, used as controls, are treated with the mixture of acetone/tween/DMSO/water not containing the active material. After 24 hours, the plants are contaminated by spraying the cotyledons with an aqueous suspension of Sphaerotheca fuliginea spores (100 000 spores per ml). The spores are collected from infected plants. […] Grading (% of efficacy) is carried out 12 days after the contamination, in comparison with the control plants.

| SMILES | logP [1] | Eff. % (Puccinia recondita) | Eff. % (Uromyces appendiculatus) | Eff. % (Alternaria brassicae) | Eff. % (Septoria tritici) | Eff. % (Sphaerotheca fuliginea) |
| --- | --- | --- | --- | --- | --- | --- |
| Cc1nn(C)c(C)c1C(=O)Nc1cccc2c1CC(C)(C)C2 [Example 43] | 2.77[a] | 89% |  |  |  |  |
| Cc1c(C(=O)Nc2cccc3c2CC(C)C3(C)C)c(C(F)(F)F)nn1C (centres unmarked) [Example 18] | 3.83[a] | 75% |  |  |  |  |
| CCC1(CC)Cc2c(NC(=O)c3cn(C)nc3C(F)F)cccc2C1C (racemic) [Example 79] | 4.27[a] | 98% | 100% | 95% | 98% | 100% |
| Cc1c(C(=O)Nc2cccc3c2CC(C(C)C)C3(C)C)cnn1C (racemic) [Example 62] | 3.73[a] | 81% | 99% |  |  |  |
| Cc1c(C(=O)Nc2cccc3c2CC(C(C)C)C3(C)C)c(C(F)(F)F)nn1C (centres unmarked) [Example 54] | 4.66[a] | 81% | 83% |  |  |  |
| Cc1c(C(=O)Nc2cccc3c2CC(C)C3(C)C)cnn1C (racemic) [Example 71] | 3[a] | 81% | 79% |  | 97% |  |
| Cn1cc(C(=O)Nc2cccc3c2CC(O)C3)c(C(F)F)n1 (centres unmarked) [Example 1] |  |  |  |  | 70% |  |
| CCC1(CC)Cc2c(NC(=O)c3cn(C)nc3C(F)(F)F)cccc2C1C (racemic) [Example 74] | 4.46[a] | 98% | 100% |  | 94% | 98% |
| CC1Cc2c(NC(=O)c3cnn(C)c3Cl)cccc2C1(C)C (centres unmarked) [Example 22] | 3.44[a] | 81% |  |  | 92% |  |
| CC1Cc2c(NC(=O)c3cn(C)nc3I)cccc2C1(C)C (racemic) [Example 75] | 3.64[a] | 98% | 100% |  | 79% | 78% |
| CC(C)c1nn(C)cc1C(=O)Nc1cccc2c1CC(C)C2(C)C (centres unmarked) [Example 23] | 3.69[a] | 81% | 89% |  |  |  |
| CC1c2cccc(NC(=O)c3cn(C)nc3C(F)(F)F)c2CC1(C)C (centres unmarked) [Example 52] | 3.72[a] | 100% | 100% |  | 94% | 98% |
| CON=C1c2cccc(NC(=O)c3cn(C)nc3C(F)F)c2CC1(C)C (mixture of isomers) [Example 32] |  | 93% |  | 75% | 100% | 98% |
| Cc1nn(C)c(F)c1C(=O)Nc1cccc2c1CC(C)(C)C2 [Example 44] |  | 78% | 98% |  |  |  |
| Cc1nn(C)c(C)c1C(=O)Nc1cccc2c1CC(C)(C)C2C (centres unmarked) [Example 55] | 3.09[a] | 100% | 100% |  |  | 88% |
| CC1Cc2c(NC(=O)c3c(C(F)(F)F)nn(C)c3Cl)cccc2C1(C)C (centres unmarked) [Example 11] | 4.26[a] | 96% | 100% |  |  |  |
| Cc1nn(C)c(F)c1C(=O)Nc1cccc2c1CC(C)(C)C2C (centres unmarked) [Example 60] | 3.5[a] | 98% | 100% |  |  | 98% |
| CC(C)CC1Cc2cccc(NC(=O)c3cn(C)nc3C(F)F)c2C1 (centres unmarked) [Example 4] |  | 93% | 100% | 93% | 85% | 70% |
| Cc1nn(C)c(C)c1C(=O)Nc1cccc2c1CC(C(C)C)C2(C)C (centres unmarked) [Example 42] | 3.87[a] | 100% | 100% |  |  | 100% |
| CC1c2cccc(NC(=O)c3cn(C)nc3C(F)(F)F)c2CC1(C)C (centres unmarked) [Example 15] | 3.74[a] | 96% | 100% | 86% |  | 100% |
| Cn1cc(C(=O)Nc2cccc3c2CC(C)(C)C3)c(C(F)F)n1 [Example 45] | 3.21[a] | 98% | 100% |  | 97% | 100% |
| CON=C1c2cccc(NC(=O)c3c(C)nn(C)c3C)c2CC1(C)C (mixture of isomers) [Example 35] |  | 79% |  |  |  |  |
| CCC1(CC)Cc2c(NC(=O)c3c(C)nn(C)c3F)cccc2C1C (racemic) [Example 70] | 4.32[a] | 98% | 100% |  |  | 98% |
| [2H]C1(C)Cc2cccc(NC(=O)c3cn(C)nc3C(F)F)c2C1 (centres unmarked) [Example 26] | 2.94[a] | 100% | 100% |  | 100% | 89% |
| CON=C1c2cccc(NC(=O)c3c(C)nn(C)c3F)c2CC1(C)C (mixture of isomers) [Example 34] |  | 71% |  |  |  |  |
| CON=C1c2cccc(NC(=O)c3cn(C)nc3C(F)(F)F)c2CC1(C)C (mixture of isomers) [Example 30] |  | 86% |  |  | 100% | 98% |

The next lines start with results.

| logP [1] | SMILES | Eff. % (Puccinia recondita) | Eff. % (Uromyces appendiculatus) | Eff. % (Alternaria brassicae) | Eff. % (Septoria tritici) | Eff. % (Sphaerotheca fuliginea) |
| --- | --- | --- | --- | --- | --- | --- |
| 3.27[a] | CCc1nn(C)cc1C(=O)Nc1cccc2c1CC(C)C2(C)C (racemic) [Example 73] | 88% | 100% |  |  |  |
| 3.99[a] | CCc1nn(C)c(F)c1C(=O)Nc1cccc2c1CC(C)(C)C2C (centres unmarked) [Example 14] | 98% | 100% |  |  |  |
| 4.09[a] | CC1Cc2c(NC(=O)c3c(C(F)(F)F)nn(C)c3F)cccc2C1(C)C (racemic) [Example 83] | 98% | 100% |  |  |  |
| 4.51[a] | CCC1Cc2c(NC(=O)c3c(C(F)(F)F)nn(C)c3F)cccc2C1(C)C (centres unmarked) [Example 50] | 98% | 100% | 88% |  | 98% |
| 3.64[a] | CCCc1nn(C)cc1C(=O)Nc1cccc2c1CC(C)C2(C)C (centres unmarked) [Example 21] | 75% |  |  |  |  |
| 3.55[a] | CCC1Cc2c(NC(=O)c3c(C)nn(C)c3C)cccc2C1(C)C (centres unmarked) [Example 38] | 100% | 100% | 80% |  |  |
| 4.85[a] | CCCc1nn(C)c(F)c1C(=O)Nc1cccc2c1CC(CC)C2(C)C (centres unmarked) [Example 48] |  |  |  |  | 94% |
| 4.31[a] | CCc1nn(C)c(Cl)c1C(=O)Nc1cccc2c1CC(C)C2(C)C (centres unmarked) [Example 7] | 96% | 100% |  |  |  |
| 4.32[a] | CCC1Cc2c(NC(=O)c3c(C)nn(C)c3Cl)cccc2C1(C)C (racemic) [Example 68] | 100% | 100% | 75% |  |  |
| 3.83[a] | Cc1nn(C)c(Cl)c1C(=O)Nc1cccc2c1CC(C)C2(C)C (racemic) [Example 80] | 98% | 100% |  |  |  |
| 4.3[a] | CCC1Cc2c(NC(=O)c3c(C(F)(F)F)nn(C)c3C)cccc2C1(C)C (centres unmarked) [Example 49] | 94% | 99% |  |  |  |
| 3.96[a] | Cc1nn(C)c(C(F)F)c1C(=O)Nc1cccc2c1CC(C)C2(C)C (racemic) [Example 87] | 100% | 100% |  | 92% |  |
| 3.42[a] | CCC1Cc2c(NC(=O)c3cnn(C)c3C)cccc2C1(C)C (centres unmarked) [Example 59] | 89% | 100% |  |  |  |
